{"source": "patent US6423864B1", "about": "“Purification of N-[N-(3,3-dimethylbutyl)-L-α-aspartyl]-L-phenylalanine 1-methyl ester via crystallization” (The NutraSweet Company, priority 1998, dated 2002)", "origin": "cited, not measured here", "conditions": "relative to sucrose; background statement"}
{"compound": "COC(=O)[C@H](Cc1ccccc1)NC(=O)[C@H](CC(=O)O)NCCC(C)(C)C", "note": "[neotame, N-[N-(3,3-dimethylbutyl)-L-α-aspartyl]-L-phenylalanine 1-methyl ester]", "values": [{"measurement": "sweetness potency (sweeter than sucrose)", "result": "about 8000 ×"}]}
